Key:
[1] = tested on: human B cell lymphoma SU-DHL-4 cells; test: Proliferation of SU-DHL-4 cells in vitro (MTT); format: cell-based; conditions: single compound, 72 hours
Procedure: (§1) Cell line: human B cell lymphoma SU-DHL-4 and SU-DHL-6 cells (purchased from ATCC), cultured in vitro in RPMI 1640 medium containing 10% fetal bovine serum (FBS).
(§2) Each of the test compounds was all formulated with DMSO into a 10 mM stock solution, which was formulated into the desired concentration with serum-free medium when used.
(§3) A certain number of cells in logarithmic growth phase was inoculated in a 96-well culture plate. After 24 hours, the cells were added with the test compounds in different concentrations (1-40000 nM), and incubated for 72 hours. Each well was added with the MTT working solution. After 4 hours, the cells were lysed with the triple solution (10% SDS, 5% isobutanol, 0.012 mol/L HCl) at 37° C. overnight, and the OD value was measured at a wavelength of 570 nm by a microplate reader. […]
(§4) The half effective concentration IC50 was calculated using the non-linear regression method according to the inhibition rate of each concentration.
(§5) In the combined administration, the concentration ratio of compound A to compound B was 1:2 (for SU-DHL-4) and 1:4 (for SU-DHL-6). The combination index (CI) was calculated with Calcu-Syn program using the median effect method to evaluate the relationship between the two compounds during the combined administration (CI<1 refers to synergistic effect, CI=1 refers to additive effect, CI>1 refers to antagonistic effect).

[2] = tested on: human B cell lymphoma DOHH-2 cells; test: Proliferation of DOHH-2 cells in vitro (MTT); format: cell-based; conditions: single compound, 72 hours
Procedure: Cell line: human B cell lymphoma DOHH-2 cells (purchased from DSMZ), cultured in vitro in RPMI 1640 medium containing 10% fetal bovine serum (FBS).
as §2
as §3, with “(1-100000” for “(1-40000”, “solution,” for “solution (10% SDS, 5% isobutanol, 0.012 mol/L HCl) at 37° C. overnight,”
The half effective concentration IC50 was calculated using the non-linear regression method according to the inhibition, rate of each concentration.
as §5, with “1:10.” for “1:2 (for SU-DHL-4) and 1:4 (for SU-DHL-6).”

[3] = tested on: human B cell lymphoma SU-DHL-4 cells subcutaneous transplantation tumor; test: Subcutaneous transplantation tumor in mice inoculated with SU-DHL-4 cells; format: in vivo, SCID.BG mice; conditions: SU-DHL-4 xenograft, PO; for Mean tumor volume D 0: baseline at first administration; for Mean tumor volume D 0 / % T/C D 14 / % tumor inhibition rate D 14 / Mean tumor volume D 14 / Complete regression (number of mice) / Partial regression (number of mice): 50 mg/kg each, BID, D 0-13; for Complete regression (number of mice) / Partial regression (number of mice): 8 mice per group; for tumor completely regressed, fraction of mice / tumor partially regressed, fraction of mice: 50 mg/kg; for tumor partially regressed, fraction of mice: text says QD×14
Excerpt: Test animals: SCID.BG mice, 5-6 weeks old, female, purchased from Shanghai Lingchang Biotechnology Co., Ltd., with laboratory animals use license No.: SCXK (Shanghai) 2013-0018 and animal certificate No.: 2013001820833, feeding condition: SPF grade.
The test compounds were all formulated with 0.2% Tween 80+0.5% CMC solution, and diluted to the corresponding concentration.
(1) The mice were subcutaneously inoculated with SU-DHL-4 cells (B cell lymphoma SU-DHL-4 cells were purchased from ATCC). When the tumors grown to 100-150 mm^3, the animals were grouped according to the tumor volume (D0).
(§6) (2) Observation and recording: the tumor volume was measured 2 to 3 times per week, the mice were weighed, and the data were recorded.
(§7) The endpoint is mainly dependent on whether the tumor growth is delayed or whether the mouse is cured. The tumor volume (in mm^3) was measured twice a week with caliper in two dimensions.
(§8) The tumor volume (V) is calculated as: V=0.5×a×b^2, wherein a and b represent length and width, respectively; T/C (%)=(T−T0)/(C−C0)×100, wherein T and C represent the tumor volume at the end of the experiment; T0 and C0 represent the tumor volume at the beginning of the experiment. The T/C value (percentage) is indicative of anti-tumor efficacy. Tumor growth inhibition rate (TGI) (%)=100−T/C (%);
When the tumor regressed, the tumor growth inhibition rate (TGI) (%)=100−(T−T0)/T0×100
If the tumor volume is smaller than the initial volume, i.e. T<T0 or C<C0, it is defined as partial regression (PR); if the tumor completely disappears, it is defined as complete regression (CR).
(§9) (4) Data analysis: the statistics were summarized, including mean and standard error of mean (SEM), statistical analysis of differences in tumor volume between groups, and analysis of data obtained by drug interaction that was carried out at the optimal treatment time point after the last administration (Day 14 after grouping). One-way variance analysis was performed to compare tumor volume and tumor weight between groups. When a […] F-statistic was obtained (p<0.001, treatment variance vs. error variance), single-tailed Mann-Whitney statistical analysis was performed to compare tumor volumes of the two groups, and P<0.05 was considered as statistically significant.

[4] = tested on: human follicular lymphoma DOHH-2 cells subcutaneous transplantation tumor; test: Subcutaneous transplantation tumor in nude mice inoculated with DOHH-2 cells; format: in vivo, BALB/cA-nude nude mice; conditions: DOHH-2 xenograft, 50 mg/kg each, PO, BID, D 0-20; for Mean tumor volume D 0: baseline at first administration
Excerpt: Test animals: BALB/cA-nude nude mice, 5-6 weeks old, female, purchased from Shanghai Lingchang Biotechnology Co., Ltd., with laboratory animals use license No.: SCXK (Shanghai) 2013-0018 and animal certificate No.: 2013001818958, feeding condition: SPF grade.
The test compounds were all formulated with 0.2% Tween 80+0.5% CMC solutions, and diluted to the corresponding concentration.
(1) The nude mice were subcutaneously inoculated with lymphoma DOHH-2 cells. When the tumors grown to 100-200 mm^3, the animals were grouped randomly (D0).
as §6, §7
as §8, with “efficacy.” for “efficacy. Tumor growth inhibition rate (TGI) (%)=100−T/C (%);”
as §9, with “21” for “14”, “the comparison between groups” for “single-tailed Mann-Whitney statistical analysis”, “using Games-Howell test. All data were analyzed using SPSS17.0,” for “to compare tumor volumes of the two groups,”

[5] = tested on: human B cell lymphoma SU-DHL-6 cells; test: Proliferation of SU-DHL-6 cells in vitro (MTT); format: cell-based; conditions: single compound, 72 hours
Procedure: as §1, §2, §3, §4, §5

Row | Structure (SMILES) | IC50 [1] | IC50 [2] | Mean tumor volume D 0 [3] | % T/C D 14 [3] | % tumor inhibition rate D 14 [3] | Mean tumor volume D 14 [3] | Complete regression (number of mice) [3] | Partial regression (number of mice) [3] | tumor completely regressed, fraction of mice [3] | tumor partially regressed, fraction of mice [3] | Mean tumor volume D 0 [4] | % T/C D 21 [4] | % tumor inhibition rate D 21 [4] | Mean tumor volume D 21 [4] | IC50 [5]
1 | CC#CC(=O)N1CC[C@@H](n2cc(-c3ccc(Oc4c(F)cccc4F)cc3)c3c(N)n[nH]c(=O)c32)C1 [Compound A] | 1060 nM | 0.325 µM | 122.4 mm^3 | 24% | 76% | 276.9 mm^3 | 1 | 1 | 1/8 | 1/8 | 111.1 mm^3 | 51% | 49% | 742.0 mm^3 | 711 nM
2 | CCc1c(N(CC)C2CCOCC2)cc2oc(CN3CCCCC3)cc2c1C(=O)NCc1c(C)cc(C)[nH]c1=O [Compound B, N-((4,6-dimethyl-2-oxo-1,2-dihydropyridin-3-yl)methyl)-5-ethyl-6-(ethyl(tetrahydro-2H-pyran-4-yl)amino)-2-(piperidin-1-ylmethyl)benzofuran-4-carboxamide] | 2170 nM | 5.92 µM | 126.6 mm^3 | 40% | 60% | 384.7 mm^3 | 1 | 2 | 1/8 | 2/8 | 107.7 mm^3 | 65% | 35% | 914.1 mm^3 | 4660 nM

From patent US11065239B2, “Use of EZH2 inhibitor combined with BTK inhibitor in preparing drug for treating tumor” (Jiangsu Hengrui Medicine Co., Ltd., priority 2017, dated 2021)
